pIC50: −log10 of the molar value.
Each compound was assayed against T1, human ACC2 (Homo sapiens, UniProt O00763) (assay: ACC2 assay, spectrophotometric 384 well assay (NADH-linked, coupled lactate dehydrogenase/pyruvate kinase)). Conditions: ACC2 assay, hACC2 construct lacking 128 N-terminal amino acids, 25° C., 340 nm; read-out: IC50.
T1 construct: made in house; host or cells: insect cells (baculoviral expression system)
Assay type: biochemical
Method in brief: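 Human ACC2 lacking N-terminal 128 aa, baculovirus/insect-cell expressed, anion-exchange purified; 100 mM Tris pH 7.5, 10 mM citrate, 25 mM KHCO3, 1% DMSO. Started with 200 μM NADH and acetyl-CoA plus 500 μM ATP; PK/LDH-coupled A340 decrease read 15 min at 25° C. IC50 by nonlinear fit of low-control-subtracted slopes.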

T1 sequence (O00763 129-2458 limits assumed): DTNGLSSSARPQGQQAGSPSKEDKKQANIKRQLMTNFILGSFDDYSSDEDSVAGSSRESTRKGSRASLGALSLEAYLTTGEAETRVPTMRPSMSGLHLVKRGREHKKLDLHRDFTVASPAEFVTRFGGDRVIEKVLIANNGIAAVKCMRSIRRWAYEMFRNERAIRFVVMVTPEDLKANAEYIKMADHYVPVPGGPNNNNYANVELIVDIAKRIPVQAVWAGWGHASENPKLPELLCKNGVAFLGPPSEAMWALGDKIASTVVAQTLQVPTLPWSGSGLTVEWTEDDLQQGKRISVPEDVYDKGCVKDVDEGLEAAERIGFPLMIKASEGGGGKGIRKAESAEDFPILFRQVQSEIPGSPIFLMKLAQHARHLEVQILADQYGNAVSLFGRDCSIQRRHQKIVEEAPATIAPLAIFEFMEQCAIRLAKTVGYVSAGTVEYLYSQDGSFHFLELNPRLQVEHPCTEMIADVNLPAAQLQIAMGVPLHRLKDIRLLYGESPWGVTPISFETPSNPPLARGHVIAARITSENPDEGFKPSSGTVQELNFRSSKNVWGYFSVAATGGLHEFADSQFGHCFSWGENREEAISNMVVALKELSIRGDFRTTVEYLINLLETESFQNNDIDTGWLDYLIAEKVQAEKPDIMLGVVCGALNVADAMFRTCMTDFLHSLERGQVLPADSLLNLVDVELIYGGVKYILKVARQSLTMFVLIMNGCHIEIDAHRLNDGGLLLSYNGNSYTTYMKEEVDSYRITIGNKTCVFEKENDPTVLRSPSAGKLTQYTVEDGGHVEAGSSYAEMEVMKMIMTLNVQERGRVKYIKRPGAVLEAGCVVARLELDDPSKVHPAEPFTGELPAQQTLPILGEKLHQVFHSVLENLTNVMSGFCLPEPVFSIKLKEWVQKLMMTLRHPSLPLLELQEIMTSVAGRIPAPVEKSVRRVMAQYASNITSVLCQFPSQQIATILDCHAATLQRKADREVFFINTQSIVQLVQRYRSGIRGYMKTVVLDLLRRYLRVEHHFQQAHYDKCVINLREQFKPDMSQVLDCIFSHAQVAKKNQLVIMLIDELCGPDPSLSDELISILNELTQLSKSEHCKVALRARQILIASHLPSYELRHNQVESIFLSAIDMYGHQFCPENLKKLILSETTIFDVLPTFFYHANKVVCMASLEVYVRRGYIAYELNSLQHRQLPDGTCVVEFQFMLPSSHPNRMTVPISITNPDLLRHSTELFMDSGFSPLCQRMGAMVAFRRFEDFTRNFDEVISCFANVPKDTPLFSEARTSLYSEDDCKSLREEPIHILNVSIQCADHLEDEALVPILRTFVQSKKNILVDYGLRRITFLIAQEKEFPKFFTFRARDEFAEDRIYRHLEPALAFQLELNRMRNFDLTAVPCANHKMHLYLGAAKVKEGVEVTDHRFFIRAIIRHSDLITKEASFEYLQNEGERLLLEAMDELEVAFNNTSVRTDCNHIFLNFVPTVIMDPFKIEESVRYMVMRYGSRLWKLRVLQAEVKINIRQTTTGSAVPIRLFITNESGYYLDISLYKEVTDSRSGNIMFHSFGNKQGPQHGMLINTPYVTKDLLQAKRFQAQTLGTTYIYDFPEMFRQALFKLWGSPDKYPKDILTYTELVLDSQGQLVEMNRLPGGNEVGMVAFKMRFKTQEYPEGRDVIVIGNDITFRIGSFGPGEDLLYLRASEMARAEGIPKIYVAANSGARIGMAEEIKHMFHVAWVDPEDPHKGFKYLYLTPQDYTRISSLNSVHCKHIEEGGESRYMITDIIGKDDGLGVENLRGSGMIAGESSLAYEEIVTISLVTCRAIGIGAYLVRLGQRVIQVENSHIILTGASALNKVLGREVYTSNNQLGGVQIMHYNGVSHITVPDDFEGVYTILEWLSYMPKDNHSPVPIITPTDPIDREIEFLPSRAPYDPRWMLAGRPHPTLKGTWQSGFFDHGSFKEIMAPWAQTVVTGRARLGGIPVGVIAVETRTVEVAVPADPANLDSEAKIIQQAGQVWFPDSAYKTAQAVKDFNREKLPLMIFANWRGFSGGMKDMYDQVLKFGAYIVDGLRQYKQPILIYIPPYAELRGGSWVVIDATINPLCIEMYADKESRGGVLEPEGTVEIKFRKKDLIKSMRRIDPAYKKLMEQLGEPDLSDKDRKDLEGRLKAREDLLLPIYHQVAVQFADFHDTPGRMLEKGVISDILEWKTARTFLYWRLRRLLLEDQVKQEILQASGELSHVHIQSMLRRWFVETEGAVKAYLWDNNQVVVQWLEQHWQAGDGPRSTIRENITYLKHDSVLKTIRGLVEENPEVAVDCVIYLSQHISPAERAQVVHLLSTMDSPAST

Point of comparison: CC(=O)N[C@@H](C)c1ccc(C2CCN(c3cc(-c4ccc(C#N)s4)ncn3)CC2)cc1 [Example 22.8], pIC50 5.54. Against it:
- CCC(C)Oc1cc(N2CCC(c3ccc([C@H](C)NC(C)=O)cc3)CC2)ccn1 (stereo partly drawn) [Example 19.13] — 1.51 log units higher, 7.05
- COCC(C)Oc1cc(N2CCC(c3ccc([C@H](C)NC(C)=O)cc3)CC2)ccn1 (stereo partly drawn) [Example 19.14] — 0.86 log units higher, 6.40
- CC(=O)N[C@@H](C)c1ccc(C2CCN(c3ccnc(OCC4(C)CC4)c3)CC2)cc1 [Example 19.15] — 1.56 log units higher, 7.10
- CC(=O)N[C@@H](C)c1ccc(C2CCN(c3ccnc(O[C@H]4CCOC4)c3)CC2)cc1 [Example 19.16] — 1.03 log units higher, 6.57
- CC(=O)N[C@@H](C)c1ccc(C2CCN(c3ccnc(OC4CCOCC4)c3)CC2)cc1 [Example 19.17] — 0.94 log units higher, 6.48
- CC(=O)N[C@@H](C)c1ccc(C2CCN(c3ccnc(OCC4CCOC4)c3)CC2)cc1 (stereo partly drawn) [Example 19.18] — 0.93 log units higher, 6.47
- CC(=O)N[C@@H](C)c1ccc(C2CCN(c3ccnc(OCC(F)F)c3)CC2)cc1 [Example 19.19] — 1.42 log units higher, 6.96
- CC(=O)N[C@@H](C)c1ccc(C2CCN(c3ccnc(O[C@@H]4CCOC4)c3)CC2)cc1 [Example 19.20] — 1.35 log units higher, 6.89
- CC(=O)N[C@@H](C)c1ccc(C2CCN(c3ccnc(OCCC(C)C)c3)CC2)cc1 [Example 19.21] — 1.12 log units higher, 6.66
- CCCOc1cc(N2CCC(c3ccc([C@H](C)NC(C)=O)cc3)CC2)ccn1 [Example 19.23] — 1.38 log units higher, 6.92
- CCC(CC)Oc1cc(N2CCC(c3ccc([C@H](C)NC(C)=O)cc3)CC2)ccn1 [Example 19.24] — 1.08 log units higher, 6.62
- CC(=O)N[C@@H](C)c1ccc(C2CCN(c3ccnc(OC4CC=CC4)c3)CC2)cc1 [Example 19.25] — 1.61 log units higher, 7.15
- CC(=O)N[C@@H](C)c1ccc(C2CCN(c3ccnc(OCC4CC4(F)F)c3)CC2)cc1 (stereo partly drawn) [Example 19.26] — 1.28 log units higher, 6.82
- CC(=O)N[C@@H](C)c1ccc(C2CCN(c3ccnc(OC(C)C4CC4)c3)CC2)cc1 (stereo partly drawn) [Example 19.27] — 0.85 log units higher, 6.39
- CC(=O)N[C@@H](C)c1ccc(C2CCN(c3ccnc(OCC4(C#N)CC4)c3)CC2)cc1 [Example 19.28] — 1.10 log units higher, 6.64
- CC(=O)N[C@@H](C)c1ccc(C2CCN(c3ccnc(OCc4ccon4)c3)CC2)cc1 [Example 19.29] — 0.50 log units higher, 6.04
- CC(=O)N[C@@H](C)c1ccc(C2CCN(c3ccnc(OC4Cc5ccccc5C4)c3)CC2)cc1 [Example 19.30] — 0.73 log units higher, 6.27
- CC(=O)N[C@@H](C)c1ccc(C2CCN(c3ccnc(OCc4ccccc4F)c3)CC2)cc1 [Example 19.31] — 0.58 log units higher, 6.12
- CC(=O)N[C@@H](C)c1ccc(C2CCN(c3ccnc(OCc4cccc(F)c4)c3)CC2)cc1 [Example 19.32] — 1.03 log units higher, 6.57
- CC(=O)N[C@@H](C)c1ccc(C2CCN(c3ccnc(OCc4ccc(F)cc4)c3)CC2)cc1 [Example 19.33] — 0.86 log units higher, 6.40
- CC(=O)N[C@@H](C)c1ccc(C2CCN(c3ccnc(OCc4cccnc4)c3)CC2)cc1 [Example 19.34] — 0.74 log units higher, 6.28
- COc1ccc(COc2cc(N3CCC(c4ccc([C@H](C)NC(C)=O)cc4)CC3)ccn2)cc1 [Example 19.35] — 0.98 log units lower, 4.56
- CC(=O)N[C@@H](C)c1ccc(C2CCN(c3ccnc(OCc4ccccn4)c3)CC2)cc1 [Example 19.37] — 0.38 log units higher, 5.92
- CC(=O)N[C@@H](C)c1ccc(C2CCN(c3ccnc(OCc4ccncc4)c3)CC2)cc1 [Example 19.38] — 0.38 log units higher, 5.92
- CC(C)Oc1cc(N2CCC(c3ccc([C@H](C)NC(=O)C4CC4)cc3)CC2)ncn1 [Example 20.1, (S)-Cyclopropanecarboxylic acid (1-{4-[1-(6-isopropoxy-pyrimidin-4-yl)-piperidin-4-yl]-phenyl}-ethyl)-amide] — 0.68 log units higher, 6.22
- C[C@H](NC(=O)C1CC1)c1ccc(C2CCN(c3cc(OC4CCC4)ncn3)CC2)cc1 [Example 20.2] — 1.12 log units higher, 6.66
- CC(C)Oc1cc(N2CCC(c3ccc([C@H](C)NC(=O)N(C)C)cc3)CC2)ncn1 [Example 20.3] — 1.20 log units higher, 6.74
- C[C@H](NC(=O)N(C)C)c1ccc(C2CCN(c3cc(OC4CCC4)ncn3)CC2)cc1 [Example 20.4] — 1.18 log units higher, 6.72
- COc1nc(N2CCC(c3ccc([C@H](C)NC(C)=O)cc3)CC2)ncc1-c1ccccc1 [Example 21.1, (S)—N-(1-{4-[1-(4-Methoxy-5-phenyl-pyrimidin-2-yl)-piperidin-4-yl]-phenyl}-ethyl)-acetamide] — 1.05 log units higher, 6.59
- CC(=O)N[C@@H](C)c1ccc(C2CCN(c3ncc(-c4ccccc4)c(C)n3)CC2)cc1 [Example 21.2, (S)—N-(1-{4-[1-(4-Methyl-5-phenyl-pyrimidin-2-yl)-piperidin-4-yl]-phenyl}-ethyl)-acetamide] — 1.28 log units higher, 6.82
- CNc1nc(N2CCC(c3ccc([C@H](C)NC(C)=O)cc3)CC2)ncc1-c1ccccc1 [Example 21.3, (S)—N-(1-{4-[1-(4-Methylamino-5-phenyl-pyrimidin-2-yl)-piperidin-4-yl]-phenyl}-ethyl)-acetamide] — 0.95 log units higher, 6.49
- CC(=O)N[C@@H](C)c1ccc(C2CCN(c3ccnc(-c4ccc5c(c4)OCO5)n3)CC2)cc1 [Example 22.1, (S)—N-(1-{4-[1-(2-Benzo[1,3]dioxol-5-yl-pyrimidin-4-yl)-piperidin-4-yl]-phenyl}-ethyl)-acetamide] — 0.42 log units higher, 5.96
- CC(=O)N[C@@H](C)c1ccc(C2CCN(c3cc(-c4ccc5c(c4)OCO5)ncn3)CC2)cc1 [Example 22.2] — within 0.2 log units, 5.60
- CC(=O)N[C@@H](C)c1ccc(C2CCN(c3nccc(-c4ccc5c(c4)OCO5)n3)CC2)cc1 [Example 22.3] — 0.46 log units higher, 6.00
- CCOc1cccc(-c2nccc(N3CCC(c4ccc([C@H](C)NC(C)=O)cc4)CC3)n2)c1 [Example 22.4] — 0.87 log units higher, 6.41
- CC(=O)N[C@@H](C)c1ccc(C2CCN(c3ccnc(-c4ccc(C#N)s4)n3)CC2)cc1 [Example 22.5] — 0.49 log units higher, 6.03
- CCOc1ccc(-c2nccc(N3CCC(c4ccc([C@H](C)NC(C)=O)cc4)CC3)n2)cc1 [Example 22.6] — 0.38 log units higher, 5.92
- CCOc1cccc(-c2cc(N3CCC(c4ccc([C@H](C)NC(C)=O)cc4)CC3)ncn2)c1 [Example 22.7] — within 0.2 log units, 5.39
- CCOc1ccc(-c2cc(N3CCC(c4ccc([C@H](C)NC(C)=O)cc4)CC3)ncn2)cc1 [Example 22.9] — within 0.2 log units, 5.51
- CCOc1cccc(-c2ccnc(N3CCC(c4ccc([C@H](C)NC(C)=O)cc4)CC3)n2)c1 [Example 22.10] — 1.08 log units higher, 6.62
- CC(=O)N[C@@H](C)c1ccc(C2CCN(c3nccc(-c4ccc(C#N)s4)n3)CC2)cc1 [Example 22.11] — 0.87 log units higher, 6.41
- CCOc1ccc(-c2ccnc(N3CCC(c4ccc([C@H](C)NC(C)=O)cc4)CC3)n2)cc1 [Example 22.12] — within 0.2 log units, 5.48
- CC(=O)N[C@@H](C)c1ccc(C2CCN(c3cc(-c4ccc5[nH]ccc5c4)ncn3)CC2)cc1 [Example 22.13] — 0.82 log units higher, 6.36
- CC(=O)N[C@@H](C)c1ccc(C2CCN(c3ncc(-c4nc5ccccc5[nH]4)cn3)CC2)cc1 [Example 23.1, (S)—N-[1-(4-{1-[5-(1H-Benzoimidazol-2-yl)-pyrimidin-2-yl]-piperidin-4-yl}-phenyl)-ethyl]-acetamide] — 1.00 log units higher, 6.54
- CCCNc1ccc(N2CCC(c3ccc([C@H](C)NC(C)=O)cc3)CC2)cc1 [Example 24.1, (S)—N-(1-{4-[1-(4-(Propylamino)phenyl)-piperidin-4-yl]-phenyl}-ethyl)-acetamide] — 0.46 log units higher, 6.00
- CCNc1ccc(N2CCC(c3ccc([C@H](C)NC(C)=O)cc3)CC2)cc1 [Example 24.2] — within 0.2 log units, 5.72
- CC(=O)N[C@@H](C)c1ccc(C2CCN(c3ccc(NCC(C)C)cc3)CC2)cc1 [Example 24.3] — 0.42 log units higher, 5.96

Reference: patent publication US9006450B2 (Boehringer Ingelheim International GmbH, priority 2010, dated 2015)
